# Laboratory results taken from patent US11673898B2, “Substituted inhibitors of menin-MLL and methods of use” (Kura Oncology, Inc., priority 2016, dated 2023).
# Biological target: T1, Menin MLL 4-43 (Homo sapiens, UniProt O00255)
# T1 sequence (O00255 1-610): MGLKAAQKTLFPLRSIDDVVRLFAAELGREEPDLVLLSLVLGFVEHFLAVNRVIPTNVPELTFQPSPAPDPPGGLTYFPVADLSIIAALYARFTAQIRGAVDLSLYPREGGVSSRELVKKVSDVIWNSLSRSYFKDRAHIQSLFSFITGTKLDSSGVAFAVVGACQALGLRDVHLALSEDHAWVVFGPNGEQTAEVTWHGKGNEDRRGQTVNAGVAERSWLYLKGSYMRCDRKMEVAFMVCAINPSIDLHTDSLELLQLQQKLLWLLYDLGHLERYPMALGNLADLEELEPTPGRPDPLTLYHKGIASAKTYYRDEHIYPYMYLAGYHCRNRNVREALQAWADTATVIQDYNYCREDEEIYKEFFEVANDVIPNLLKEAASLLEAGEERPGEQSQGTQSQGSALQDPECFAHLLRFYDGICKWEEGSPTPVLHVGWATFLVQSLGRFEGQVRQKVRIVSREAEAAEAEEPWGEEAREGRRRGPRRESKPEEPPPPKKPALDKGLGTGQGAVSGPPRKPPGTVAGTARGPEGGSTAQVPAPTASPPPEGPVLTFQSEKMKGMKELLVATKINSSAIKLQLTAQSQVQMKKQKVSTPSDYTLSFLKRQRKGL
# Test: Fluorescence polarization (FP) competition assay of the menin-MLL interaction
# Type: binding
# Conditions: fluorescence polarization assay; read-out: Menin MLL 4-43 IC50
row,Structure (SMILES),IC50 [nM]
1,Cc1c(CN2CCC(Nc3ncnc4sc(CC(F)(F)F)cc34)CC2)ccc2c1cc(C#N)n2C[C@H](C)N1CCN(S(=O)(=O)N(C)C)CC1 [Compound 89],< 50
2,Cc1c(CN2CCC(Nc3ncnc4sc(CC(F)(F)F)cc34)CC2)ccc2c1cc(C#N)n2CC(C)N1CCC(S(C)(=O)=O)CC1 (centres unmarked) [Compound 90],< 50
3,Cc1c(CN2CCC(Nc3ncnc4sc(CC(F)(F)F)cc34)CC2)ccc2c1cc(C#N)n2C[C@@H](C)N1C[C@@H](C)N(S(C)(=O)=O)[C@H](C)C1 [Compound 91],50 to 250
4,Cc1c(CN2CCC(Nc3ncnc4sc(CC(F)(F)F)cc34)CC2)ccc2c1cc(C#N)n2C[C@H](C)N1C[C@@H](C)C(S(C)(=O)=O)[C@H](C)C1 [Compound 92],< 50
5,C=CC(=O)Nc1ccc(C(C)Cn2c(C#N)cc3c(C)c(CN4CCC(Nc5ncnc6sc(CC(F)(F)F)cc56)CC4)ccc32)cn1 (centres unmarked) [Compound 93],< 50
6,Cc1c(CN2CCC(Nc3ncnc4sc(CC(F)(F)F)cc34)CC2)ccc2c1cc(C#N)n2CC(C)N1C2CCC1CN(S(C)(=O)=O)C2 (centres unmarked) [Compound 94],50 to 250
7,Cc1c(CN2CCC(Nc3ncnc4sc(CC(F)(F)F)cc34)CC2)ccc2c1cc(C#N)n2C[C@H](C)N1CCN(S(=O)(=O)C2CC2)CC1 [Compound 115],< 50
8,Cc1c(CN2CCC(Nc3ncnc4sc(CC(F)(F)F)cc34)CC2)ccc2c1cc(C#N)n2C[C@H](C)N1CCN(S(=O)(=O)CC(C)C)CC1 [Compound 116],50 to 250
9,Cc1c(CN2CCC(Nc3ncnc4sc(CC(F)(F)F)cc34)CC2)ccc2c1cc(C#N)n2C[C@H](C)N1CCN(C(=O)C2CC2)CC1 [Compound 117],50 to 250
10,Cc1c(CN2CCC(Nc3ncnc4sc(CC(F)(F)F)cc34)CC2)ccc2c1cc(C#N)n2C[C@H](C)N1CCN(C(=O)C(F)(F)F)CC1 [Compound 118],20 to 1000
11,CCNS(=O)(=O)N1CCN([C@@H](C)Cn2c(C#N)cc3c(C)c(CN4CCC(Nc5ncnc6sc(CC(F)(F)F)cc56)CC4)ccc32)CC1 [Compound 119],< 50
12,Cc1c(CN2CCC(Nc3ncnc4sc(CC(F)(F)F)cc34)CC2)ccc2c1cc(C#N)n2C[C@H](C)N1CCN(S(=O)(=O)NCC(C)C)CC1 [Compound 120],50 to 250
13,Cc1c(CN2CCC(Nc3ncnc4sc(CC(F)(F)F)cc34)CC2)ccc2c1cc(C#N)n2C[C@H](C)N1CCN(S(=O)(=O)N2CCC2)CC1 [Compound 121],50 to 250
14,Cc1c(CN2CCC(Nc3ncnc4sc(CC(F)(F)F)cc34)CC2)ccc2c1cc(C#N)n2C[C@H](C)N1CCN(C(=O)CC(F)(F)F)CC1 [Compound 122],50 to 250
15,COCCNS(=O)(=O)N1CCN([C@@H](C)Cn2c(C#N)cc3c(C)c(CN4CCC(Nc5ncnc6sc(CC(F)(F)F)cc56)CC4)ccc32)CC1 [Compound 123],< 50
16,Cc1c(CN2CCC(Nc3ncnc4sc(CC(F)(F)F)cc34)CC2)ccc2c1cc(C#N)n2CC(C)N1C[C@@H](C)N(S(=O)(=O)CF)[C@H](C)C1 (some centres unmarked) [Compound 124],50 to 250
17,Cc1c(CN2CCC(Nc3ncnc4sc(CC(F)(F)F)cc34)CC2)ccc2c1cc(C#N)n2C[C@H](C)N1CCN(S(=O)(=O)NCC(F)F)CC1 [Compound 125],50 to 250
18,Cc1c(CN2CCC(Nc3ncnc4sc(CC(F)(F)F)cc34)CC2)ccc2c1cc(C#N)n2C[C@H](C)N1CCN(S(=O)(=O)CC(F)(F)F)CC1 [Compound 126],50 to 250
19,Cc1c(CN2CCC(Nc3ncnc4sc(CC(F)(F)F)cc34)CC2)ccc2c1cc(C#N)n2C[C@H](C)N1CCN(S(=O)(=O)C2CCC2)CC1 [Compound 127],50 to 250
20,CNS(=O)(=O)C1CCN(C(C)Cn2c(C#N)cc3c(C)c(CN4CCC(Nc5ncnc6sc(CC(F)(F)F)cc56)CC4)ccc32)CC1 (centres unmarked) [Compound 128],50 to 250
21,Cc1c(CN2CCC(Nc3ncnc4sc(CC(F)(F)F)cc34)CC2)ccc2c1cc(C#N)n2C[C@H](C)N1CCN(S(=O)(=O)NCCF)CC1 [Compound 129],< 50
22,Cc1c(CN2CCC(Nc3ncnc4sc(CC(F)(F)F)cc34)CC2)ccc2c1cc(C#N)n2C[C@H](C)N1CCN(S(=O)(=O)NCC(F)(F)F)CC1 [Compound 130],50 to 250
23,Cc1c(CN2CCC(Nc3ncnc4sc(CC(F)(F)F)cc34)CC2)ccc2c1cc(C#N)n2C[C@H](C)N1CCN(S(=O)(=O)NCCO)CC1 [Compound 131],< 50
24,COCC(=O)N1CCN([C@@H](C)Cn2c(C#N)cc3c(C)c(CN4CCC(Nc5ncnc6sc(CC(F)(F)F)cc56)CC4)ccc32)CC1 [Compound 133],50 to 250
25,Cc1c(CN2CCC(Nc3nc(N)nc4sc(CC(F)(F)F)cc34)CC2)ccc2c1cc(C#N)n2C[C@H](C)N1CCN(C=O)CC1 [Compound 134],< 50

row,Structure (SMILES),IC50 [nM]
1,Cc1nc(NC2CCN(Cc3ccc4c(cc(C#N)n4C[C@H](C)N4CCN(C=O)CC4)c3C)CC2)c2cc(CC(F)(F)F)sc2n1 [Compound 136],< 50
2,Cc1nc(NC2CCN(Cc3ccc4c(cc(C#N)n4C[C@H](C)N4CCN(S(=O)(=O)CF)CC4)c3C)CC2)c2cc(CC(F)(F)F)sc2n1 [Compound 137],50 to 250
3,Cc1c(CN2CCC(Nc3ncnc4sc(CC(F)(F)F)cc34)CC2)ccc2c1cc(C#N)n2C[C@H](C)N1CCN(S(=O)(=O)N2CC2)CC1 [Compound 140],50 to 250
4,CCCNS(=O)(=O)N1CCN([C@@H](C)Cn2c(C#N)cc3c(C)c(CN4CCC(Nc5ncnc6sc(CC(F)(F)F)cc56)CC4)ccc32)CC1 [Compound 141],< 50
5,CCCCNS(=O)(=O)N1CCN([C@@H](C)Cn2c(C#N)cc3c(C)c(CN4CCC(Nc5ncnc6sc(CC(F)(F)F)cc56)CC4)ccc32)CC1 [Compound 142],50 to 250
6,Cc1c(CN2CCC(Nc3ncnc4sc(CC(F)(F)F)cc34)CC2)ccc2c1cc(C#N)n2C[C@H](C)N1CCN(C2=NCCO2)CC1 [Compound 143],50 to 250
7,Cc1c(CN2CCC(Nc3ncnc4sc(CC(F)(F)F)cc34)CC2)ccc2c1cc(C#N)n2C[C@H](C)N1CCN(S(=O)(=O)C(F)F)CC1 [Compound 144],50 to 250
8,Cc1c(CN2CCC(Nc3ncnc4sc(CC(F)(F)F)cc34)CC2)ccc2c1cc(C#N)n2C[C@H](C)N1CCN(S(=O)(=O)CF)[C@H](C)C1 [Compound 145],50 to 250
9,Cc1nc(NC2CCN(Cc3ccc4c(cc(C#N)n4C[C@H](C)N4CCN(S(=O)(=O)C5CC5)CC4)c3C)CC2)c2cc(CC(F)(F)F)sc2n1 [Compound 146],50 to 250
10,Cc1c(CN2CCC(Nc3nc(N)nc4sc(CC(F)(F)F)cc34)CC2)ccc2c1cc(C#N)n2C[C@H](C)N1CCN(S(=O)(=O)C2CC2)CC1 [Compound 147],< 50
11,Cc1c(CN2CCC(Nc3ncnc4sc(CC(F)(F)F)cc34)CC2)ccc2c1cc(C#N)n2C[C@H](C)N1CCNCC1 [Compound 148],< 50
12,Cc1c(CN2CCC(Nc3nc(N)nc4sc(CC(F)(F)F)cc34)CC2)ccc2c1cc(C#N)n2C[C@H](C)N1CCN(S(=O)(=O)CF)CC1 [Compound 149],< 50
13,Cc1c(CN2CCC(Nc3ncnc4sc(CC(F)(F)F)cc34)CC2)ccc2c1cc(C#N)n2C[C@H](C)N1CCN(P(C)(C)=O)CC1 [Compound 150],50 to 250
14,Cc1c(CN2CCC(Nc3ncnc4sc(CC(F)(F)F)cc34)CC2)ccc2c1cc(C#N)n2C[C@H](C)N1C[C@@H](C)N(S(=O)(=O)CF)[C@@H](C)C1 [Compound 152],50 to 250
15,[2H]C1([2H])N([C@@H](C)Cn2c(C#N)cc3c(C)c(CN4CCC(Nc5ncnc6sc(CC(F)(F)F)cc56)CC4)ccc32)C([2H])([2H])C([2H])([2H])N(S(C)(=O)=O)C1([2H])[2H] [Compound 153],50 to 250
16,Cc1c(CN2CCC(Nc3ncnc4sc(CC(F)(F)F)cc34)CC2)ccc2c1cc(C#N)n2C[C@H](C)N1CCN(CC(N)=O)CC1 [Compound 154],< 50
17,Cc1c(CN2CCC(Nc3ncnc4sc(CC(F)(F)F)cc34)CC2)ccc2c1cc(C#N)n2C[C@H](C)N1CCN(C(C)C(N)=O)CC1 (some centres unmarked) [Compound 156],50 to 250
18,Cc1c(CN2CCC(Nc3ncnc4sc(CC(F)(F)F)cc34)CC2)ccc2c1cc(C#N)n2C[C@H](C)N1CCC(NP(C)(C)=O)CC1 [Compound 157],20 to 1000
19,Cc1c(CN2CCC(Nc3nc(N)nc4sc(CC(F)(F)F)cc34)CC2)ccc2c1cc(C#N)n2C[C@H](C)N1CCC(S(C)(=O)=O)CC1 [Compound 158],< 50
20,C[C@@H](Cn1c(C#N)cc2cc(CN3CCC(Nc4ncnc5sc(CC(F)(F)F)cc45)CC3)c(O)cc21)N1CCN(C=O)CC1 [Compound 159],50 to 250
21,C[C@@H](Cn1c(C#N)cc2cc(CN3CCC(Nc4ncnc5sc(CC(F)(F)F)cc45)CC3)c(O)cc21)N1CCN(S(C)(=O)=O)CC1 [Compound 160],50 to 250
22,[2H]C1([2H])N(C(C)Cn2c(C#N)cc3c(C)c(CN4CCC(Nc5ncnc6sc(CC(F)(F)F)cc56)CC4)ccc32)C([2H])([2H])C([2H])([2H])N(S(C)(=O)=O)C1([2H])[2H] (centres unmarked) [Compound 161],50 to 250
23,Cc1c(CN2CCC(Nc3ncnc4sc(CC(F)(F)F)cc34)CC2)ccc2c1cc(C#N)n2C[C@H](C)N1CCN(S(C)(=O)=O)[C@@H](C(N)=O)C1 [Compound 164],50 to 250
24,Cc1c(CN2CCC(Nc3nc(N)nc4sc(CC(F)(F)F)cc34)CC2)ccc2c1cc(C#N)n2C[C@H](C)N1CCN(C(C)C)CC1 [Compound 166],< 50
25,Cc1c(CN2CCC(Nc3nc(N)nc4sc(CC(F)(F)F)cc34)CC2)ccc2c1cc(C#N)n2C[C@@H](C)N1CCN(S(C)(=O)=O)CC1 [Compound 167],50 to 250
